Test systems include BT-549; EKVX; Malme-3M; OVCAR-3; SNB-19; TK-10; HCT-15; MOLT-4.
What all share (assay): NCI anticancer screen, dose series, 48 h

The structures appear in SMILES notation.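 Values below derive from 48-hour exposures of cells grown in 96-well plates, with endpoints linearly interpolated between the two concentrations bracketing the appropriate inhibition level. Here, GI50 denotes the concentration required for 50% inhibition of growth.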 Calls of active or inactive are those of the source. Cut-off read from the data, not from the text of the source: active = GI50 up to about 1.1 µM and inactive = higher.

On to `C=C1C(=O)O[C@H]2/C=C(/C)C3=CC(=O)[C@@](C)(C[C@@H](OC(=O)/C(C)=C\C)C12)O3` (stereo partly drawn), for which the GI50 was 1.21 µM (inactive) in the experiment on BT-549; 1.29 µM (inactive) in the experiment on EKVX; 0.387 µM (active) with Malme-3M; 0.769 µM (active) in the experiment on OVCAR-3; 13.2 µM (inactive) in the experiment with SNB-19; 0.649 µM (active) in the experiment with TK-10.
As to `C=C1C(C)C2C(Cc3ccccc3)NC(=O)C23C(OC(C)=O)C=CC(C)(O)C(=O)C(C)C/C=C/C3C1O` (stereo not drawn), the results for the GI50 in the experiment with HCT-15 and in the experiment with MOLT-4 were 5.55 µM and 15.1 µM (inactive), respectively.

For the origin of these results see ChEMBL document CHEMBL1201862, “PubChem BioAssay data set” (2004).
